Assay results: patent US10426775B2, “Methods for treating Friedreich's ataxia with etravirine” (Fratagene Therapeutics srl, priority 2017, dated 2019)

What was measured:
[1] = system: frataxin; experiment: Western blot of frataxin in lymphoblastoid cell lines derived from FRDA patients; assay type: cell-based, human
Protocol: Lymphoblastoid cell lines from one healthy subject [GM16215] and 7 FRDA patients [GM16228, GM16203, GM16214, GM16223, GM16210, GM16205, GM16216], and primary fibroblasts from 2 FRDA patients [GM02816 and GM04078], were obtained from NIGMS Human Genetic Cell Repository, Coriell Institute for Medical Research (Camden, N.J., USA). Lymphoblasts and fibroblasts were grown at 37° C. and 5% CO2 and were respectively cultured in RPMI or DMEM, supplemented with 15% FBS, […] penicillin/streptomycin and 2 mM L-glutamine.
For the validation steps, etravirine (TMC125) was purchased from Selleckchem and was dissolved in DMSO at a stock concentration of 10 mM. HEK-293 Flp-In cells, stably overexpressing frataxin, were treated with the drug (or only DMSO) for 24 hours at final concentration of 10 μM. FRDA cells were treated with different concentration of etravirine. For all drug (and no drug) treatments, the final concentration of DMSO in the cell culture medium was 0.1%.
Total cell extracts were prepared in lysis buffer (50 mM Tris-HCl, pH 7.5, 150 mM NaCl, 1% Igepal CA-630, 5 mM EDTA, 5 mM EGTA) supplemented with complete protease inhibitor cocktail (Roche Diagnostics, Indianapolis, Ind., USA). Lysates were clarified by centrifugation and supernatants were mixed with 4× Laemmli sample buffer (50 mM Tris pH 6.8, 2% SDS, 10% gliycerol, 0.0025% bromophenol blue, 5% beta-mercaptoethanol), boiled for 5 min, resolved by precast 12% SDS-PAGE gels (Bio-Rad Laboratories, Hercules, Calif., USA) and transferred to […] nitrocellulose membrane (TRANS-BLOT® TURBO™ Transfer pack, Bio-Rad). Membranes were blocked with 5% non-fat dry milk, 0.1% Tween 20 in phosphate-buffered saline (PBS) and incubated with the indicated primary and secondary antibodies. The immunoreactive bands were detected by ECL (GE Healthcare, Chalfont St. Giles, UK) and imaged with a ChemiDoc XRS system (Bio-Rad). Densitometry analysis was performed using the ImageLab 4.1 Software (Bio-Rad). To analyse the western blot densitometry results, a Student's t test was applied. All values are expressed as means±1 S.E.M.
In order to evaluate whether the precursor that readily accumulates upon etravirine treatment can be converted into the mature functional form of frataxin, we tested the effect of different doses of etravirine, ranging from 100 nM to 10 μM, on a lymphoblastoid cell line, GM16203, derived from an FRDA patient. The cells were treated with the indicated doses of etravirine for 24 hours. Cell extracts were resolved on SDS-PAGE and analyzed by western blot analysis with anti-frataxin and anti-tubulin, as a loading control. We tested different doses, ranging from 100 nM to 3 μM, on the lymphoblastoid cell line GM16203.
A) FRDA lymphoblast cells, GM16203, were treated with the indicated doses of etravirine for 24 hours. Cell extracts were resolved on SDS-PAGE and analyzed by western blot analysis with anti-frataxin (lower panel) and anti-tubulin (upper panel), as a loading control. Int: intermediate frataxin; mat: mature frataxin; tub: tubulin. B) The graph represents the relative mature frataxin levels measured by densitometric analysis of independent blots and normalized with tubulin levels. Data represent the average of three independent experiments±S.E.M. p-values were calculated with Student's t-test (*p<0.05; **p<0.01)
We chose the minimal effective dose (300 nM) to evaluate the efficacy of etravirine over a broad range of cells derived from FRDA patients. In particular, we analysed 7 lymphoblastoid cell lines derived from FRDA patients and primary fibroblasts derived from two different FRDA patients. Each cell line was treated with 300 nM etravirine for 24 hours. Cell extracts were resolved on SDS-PAGE and analyzed by western blot analysis with anti-frataxin and anti-tubulin, as a loading control. Etravirine promotes increase in intermediate and mature frataxin levels in all the cell lines tested upon 24 hours of treatment (FIGS. 3A-3B). […]

[2] = system: newly synthesized frataxin mRNA; experiment: Nascent frataxin transcripts (EU metabolic labeling, Click-iT capture, real-time PCR) in HEK293-fxn; assay type: cell-based, human; conditions: 10 μM, 4 or 8 hours
Excerpt: We then investigated whether the observed increase in frataxin protein levels is due to an upregulation of the frataxin mRNA, either promoted by an increase in the […] rate of frataxin mRNA or by its stabilization. To understand whether etravirine promotes de novo synthesis of frataxin mRNA, we metabolically labeled nascent transcripts through the incorporation of 5-ethynyl uridine (EU). Through a click chemistry-based reaction, biotin was then conjugated to EU-labelled transcripts, thus allowing selective isolation and analysis of newly synthesized mRNA. We therefore quantitatively analyzed the relative amount of newly synthesized frataxin mRNA in etravirine-treated HEK293-fxn cells, compared to untreated control cells. […] We then analyzed the effect of etravirine on the decay of frataxin transcript observed upon treatment with actinomycin. HEK293-fxn cells were treated with actinomycin for 4, 8 or 12 hours in the presence or absence of etravirine and frataxin mRNA was quantitated by RT-PCR.
HEK 293-fxn stably expressing frataxin (A), HEK 293 (B), or FRDA lymphoblast cell line GM16203 (C) were treated with 10 μM etravirine for the indicated time points. Protein extracts were resolved on SDS-PAGE and analyzed by western blot with anti-frataxin antibody and anti-tubulin as a loading control. Etr: etravirine; tub: tubulin; fxn pre: frataxin precursor. […]

## Cc1cc(C#N)cc(C)c1Oc1nc(Nc2ccc(C#N)cc2)nc(N)c1Br [etravirine]
[1]; FRDA lymphoblast cell line GM16203, 10 μM etravirine
  frataxin precursor accumulation: can also be detected
[1]; GM16203 lymphoblasts (830 GAA repeats), 300 nM etravirine, 24 hours
  average fold increase in mature frataxin levels: 1.41 fold
[1]; GM16203 lymphoblasts, 24 hours, doses 100 nM to 10 μM
  minimal effective dose (sufficient for a significant increase in intermediate and mature frataxin forms): 300 nM
[1]; GM16203 lymphoblasts, 24 hours, etravirine at 10 (μM)
  frataxin form induced at the highest dose: mostly induces precursor accumulation
[1]; GM16205 lymphoblasts (530 GAA repeats), 300 nM etravirine, 24 hours
  average fold increase in mature frataxin levels: 1.58 fold
[1]; GM16210 lymphoblasts (580 GAA repeats), 300 nM etravirine, 24 hours
  average fold increase in mature frataxin levels: 1.22 fold
[1]; GM16214 lymphoblasts (700 GAA repeats), 300 nM etravirine, 24 hours
  average fold increase in mature frataxin levels: 1.71 fold
[1]; GM16214 treated vs GM16215 untreated, 24 hours, 300 nM etravirine
  frataxin accumulation in treated patient cells vs unaffected carrier cells: comparable to frataxin levels in untreated cells derived from healthy control
[1]; GM16216 lymphoblasts (500 GAA repeats), 300 nM etravirine, 24 hours
  average fold increase in mature frataxin levels: 1.21 fold
[1]; GM16223 lymphoblasts (630 GAA repeats), 300 nM etravirine, 24 hours
  average fold increase in mature frataxin levels: 1.22 fold
[1]; GM16228 lymphoblasts (840 GAA repeats), 300 nM etravirine, 24 hours
  average fold increase in mature frataxin levels: 1.62 fold
[1]; all FRDA lymphoblastoid lines and fibroblasts tested, 300 nM etravirine, 24 hours
  overall increase in mature frataxin levels in cells derived from FRDA patients: 50%
[2]
  relative amount of newly synthesized frataxin mRNA vs untreated control cells: did not observe any difference
